From publication PMC6930503, “Antiviral, Antimicrobial and Antibiofilm Activity of Selenoesters and Selenoanhydrides” (Molecules, 2019)
≈ marks a conversion by molar mass, not a printed value.

Key:
[1] = MTT cytotoxicity assay on Vero cells; settings: African green monkey
S. aureus ATCC 25923 [2] = assay: Biofilm formation assay with crystal violet; type: cell-based; settings: Staphylococcus aureus, ATCC25923, 48 h; for inhibition at 50 µM: compound at 50 μM
Method: (§1) The biofilm-forming ability of S. Typhimurium and S. aureus ATCC strains was studied in 96-well microtiter plates, using Luria-Bertani (LB) broth without salt (S. Typhimurium) or tryptic soy broth TSB (S. aureus) in the presence of selenocompounds. Initially, overnight cultures were diluted to an optical density (OD) of 0.1 at 600 nm and then added to each well, with the exception of the medium control wells and compounds were added individually at ½ MIC. The final volume was 200 μL in each well. Plates were incubated at 30 °C, for 48 h, with gentle agitation (100 rpm). After the incubation period, the medium was discarded, and the plate was washed with tap water, to remove unattached cells. Then, 200 μL of crystal violet (CV; 0.1% [v/v]) was added to the wells and incubated for 15 min at room temperature. CV was removed from the wells, and the plate was washed again with tap water. Then, 200 μL of 70% ethanol was added to each well, and the biofilm formation was determined by measuring the OD at 600 nm, using a FLUOstar Optima plate reader (BMG Labtech, Aylesbury, UK). The antibiofilm effect of selenocompounds was expressed in the percentage (%) decrease in biofilm formation. The assay was repeated a minimum of three times. The results were analyzed by using the t-test and p-values of <0.05 were considered significant.

[3] = tested on: Candida tropicalis ATCC 13803; assay: Antifungal disk-diffusion; settings: ATCC13803, 72 h, read-out: Inhibition Zone Diameter
Method: (§6) Disk diffusion. The antifungal activity of the selenocompounds against selected pathogenic yeasts were screened, measuring their inhibition zones [49]. Solutions of the selenocompounds were set at two concentrations: 200 µM (from a 10 mM stock solution) and 10 mM. The sterile filter paper discs (diameter (D) 6 mm) impregnated with the solutions (10 µL of solutions) were placed on Saboraud Dextrose Agar (SDA), inoculated with the respective suspensions of yeasts (inocula of 0.5 McFarland’s standard). The solvent (DMSO) served as negative control, and an additional plate was inoculated without disks, to serve as growth control. The inocula were used within 15 min of preparation, the disks were applied within 15 min of inoculating the plates, and incubation started within 15 min of application of the disks (according to EUCAST standards). The plates were then incubated for 72 h, under aerobic conditions, at 37 °C. Inhibition zone diameters generated by the tested compounds (including the diameter of the disc) were measured. All experiments were performed in triplicate.

[4] = tested on: Candida glabrata ATCC 36909; assay: Antifungal disk-diffusion; settings: Nakaseomyces glabratus, ATCC36909, 72 h; for zone of inhibition at 200 µM: read-out: Inhibition Zone Diameter, 200 µM on disk, 72 h; for zone of inhibition at 10000 µM: read-out: Inhibition Zone Diameter, 10 mM on disk, 72 h
Method: as §6

HSV-2 = assay: Anti-HSV-2 activity by qPCR in infected Vero cells; settings: for minimal effective concentration: Human alphaherpesvirus 2, Vero, 24 h, read-out: lowest concentration with (significant) antiviral activity against HSV-2, Vero cells infected with HSV-2, MOI 0.01, qPCR after 24 h; for antiviral activity at x-fold lower concentration than acyclovir: compared with acyclovir; for antiviral activity against HSV-2 (in words): Vero cells infected with HSV-2, qPCR
[5] = tested on: Candida parapsilosis ATCC 22019; assay: Antifungal disk-diffusion; settings: Lodderomyces parapsilosis, ATCC22019, 72 h, read-out: Inhibition Zone Diameter
Method: as §6

[6] = tested on: Candida krusei ATCC 14243; assay: Antifungal broth microdilution MIC; type: cell-based; settings: Pichia kudriavzevii, ATCC14243, read-out: Minimal inhibitory concentration
Method: (§2) This MIC values were calculated by using the broth microdilution method (Table 3).
(§3) Broth microdilution method. […] Determination of the MIC values was performed by using the broth microdilution method, according to EUCAST standards.

[7] = tested on: Candida albicans ATCC 10231; assay: Antifungal broth microdilution MIC; type: cell-based; settings: ATCC10231, read-out: Minimal inhibitory concentration
Method: as §2, §3

[8] = tested on: Candida parapsilosis ATCC 22019; assay: Antifungal broth microdilution MIC; type: cell-based; settings: Lodderomyces parapsilosis, ATCC22019, read-out: Minimal inhibitory concentration
Method: as §2, §3

[9] = tested on: Cryptococcus diffluens ATCC 32059; assay: Antifungal broth microdilution MIC; type: cell-based; settings: Naganishia diffluens, ATCC32059, read-out: Minimal inhibitory concentration
Method: as §2, §3

[10] = tested on: Candida albicans ATCC 10231; assay: Antifungal disk-diffusion; settings: ATCC10231, 72 h, read-out: Inhibition Zone Diameter
Method: as §6

[11] = tested on: Candida krusei ATCC 14243; assay: Antifungal disk-diffusion; settings: Pichia kudriavzevii, ATCC14243, 72 h; for zone of inhibition at 200 µM: read-out: Inhibition Zone Diameter, 200 µM on disk, 72 h; for zone of inhibition at 10000 µM: read-out: Inhibition Zone Diameter, 10 mM on disk, 72 h
Method: as §6

[12] = tested on: S. enterica serovar Typhimurium 14028s; assay: Biofilm formation assay with crystal violet; type: cell-based, Salmonella enterica serovar Typhimurium; settings: Salmonella enterica, compound at 50 μM, 48 h
Method: as §1

[13] = tested on: Cryptococcus diffluens ATCC 32059; assay: Antifungal disk-diffusion; settings: Naganishia diffluens, ATCC32059, 72 h, read-out: Inhibition Zone Diameter
Method: as §6

S. aureus ATCC 25923 [14] = assay: Antibiofilm effect in combination with ciprofloxacin; type: cell-based, Staphylococcus aureus; settings: CIP at 1.6 µM, compound at ½ MIC
Method: (§4) […]; 4, 5, 7, 8 and 9 for S. Typhimurium).
(§5) […]. The effect was determined by two-fold broth microdilution method in 96-well plates, using serial dilutions of TET and CIP. The first four rows contained two-fold dilutions of antibiotics, and combinations of the antibiotics and tested compounds were added into the last four rows. The overnight bacterial cultures were diluted to an OD of 0.1 at 600 nm and then added to each well, in 50 μL LB, without salt or TSB, with the exception of the medium control wells. The plates were then incubated at 30 °C, for 48 h, with gentle agitation (100 rpm), and the biofilm formation was determined by measuring the OD at 600 nm, using a FLUOstar Optima plate reader. The antibiofilm effect of antibiotic alone and in combination with selenocompounds was expressed in the percentage (%) of decrease in biofilm formation. The results were analyzed by using the t-test and p-values of <0.05 were considered significant.

[15] = tested on: S. enterica serovar Typhimurium 14028s; assay: Antibiofilm effect in combination with tetracycline; type: cell-based, Salmonella enterica serovar Typhimurium; settings: compound at ½ MIC; for antibiofilm effect in the presence of TET: 1.25 µM of TET; for effect on the antibiofilm activity of TET compared to TET alone: 2.5 µM of TET
Method: as §4, §5

| Compound | IC50 at 24 h [1] | zone of inhibition at 10000 µM [4] | minimal effective concentration (HSV-2) | antiviral activity at concentration x-fold lower than the cytotoxic concentration (IC50 in Vero cells) (HSV-2) | zone of inhibition at 10000 µM [5] | MIC [6] | MIC [7] | MIC [8] | MIC [9] | zone of inhibition at 10000 µM [10] | zone of inhibition at 10000 µM [11] | inhibition at 50 µM [12] | other results |
| --- | --- | --- | --- | --- | --- | --- | --- | --- | --- | --- | --- | --- | --- |
| O=C1[Se]C(=O)c2ccccc21 [Compound 1] | > 100 µM | 13 mm | 12.5 µM | 8 fold | 6 mm | 100 µM (≈ 21.1 µg/mL) | 50 µM (≈ 10.6 µg/mL) | > 200 µM | > 200 µM | > 30 mm | > 30 mm | – | inhibition at 50 µM (S. aureus ATCC 25923 [2]): > 70%; zone of inhibition at 200 µM [3]: 3 mm; zone of inhibition at 10000 µM [3]: > 30 mm; zone of inhibition at 200 µM [4]: 2 mm; zone of inhibition at 200 µM [10]: 14 mm; zone of inhibition at 200 µM [11]: 11 mm |
| NC(=O)C[Se]C(=O)c1ccccc1 [Compound 6] | > 100 µM | < 10 mm | 25 µM | 2 fold | – | – | – | – | – | – | – | – | inhibition at 50 µM (S. aureus ATCC 25923 [2]): > 70% |
| CC(C)(C)C(=O)C[Se]C(=O)c1ccc(Cl)cc1 [Compound 10] | 45 µM | 25 mm | 5 µM | 9 fold | > 30 mm | 50 µM (≈ 15.9 µg/mL) | > 200 µM | > 200 µM | > 200 µM | > 30 mm | > 30 mm | – | inhibition at 10 µM (S. aureus ATCC 25923 [2]; compound at 10 μM): > 70%; zone of inhibition at 10000 µM [3]: 16 mm; antiviral activity at x-fold lower concentration than acyclovir (HSV-2): 8 fold; zone of inhibition at 200 µM [5]: 2 mm; zone of inhibition at 200 µM [11]: 14 mm |
| C[Se]C(=O)c1ccc(C(=O)[Se]C)s1 [Compound 2] | > 100 µM | – | – | – | – | – | – | – | – | – | – | > 50% | antiviral activity against HSV-2 (in words) (HSV-2): did not reduce the number of HSV-2 |
| COc1cc(OC)cc(C(=O)[Se]CC(=O)C(C)(C)C)c1 [Compound 11] | 39 µM | 18 mm | 1.25 µM | 31 fold | > 30 mm | > 200 µM | > 200 µM | 100 µM (≈ 34.3 µg/mL) | 100 µM (≈ 34.3 µg/mL) | 19 mm | 12 mm | – | inhibition at 25 µM (S. aureus ATCC 25923 [2]; compound at 25 μM): > 70%; antiviral activity at x-fold lower concentration than acyclovir (HSV-2): 4 fold; zone of inhibition at 200 µM [5]: 14 mm; zone of inhibition at 200 µM [13]: 10 mm; zone of inhibition at 10000 µM [13]: 18 mm; effect on the antibiofilm activity of CIP (S. aureus ATCC 25923 [14]): significantly increased the activity of CIP |
| C[Se]C(=O)c1cccc(C(=O)[Se]C)c1 [Compound 4] | > 100 µM | – | – | – | – | – | – | – | – | – | – | 75% | antibiofilm effect in the presence of TET [15]: significantly higher antibiofilm effects; antiviral activity against HSV-2 (in words) (HSV-2): did not reduce the number of HSV-2 |
| CC(=O)C[Se]C(=O)c1ccc(Cl)cc1 [Compound 9] | 31 µM | > 30 mm | – | – | > 30 mm | 50 µM (≈ 13.8 µg/mL) | > 200 µM | > 200 µM | 100 µM (≈ 27.6 µg/mL) | > 30 mm | > 30 mm | – | antibiofilm effect in the presence of TET [15]: significantly higher antibiofilm effects; effect on the antibiofilm activity of TET compared to TET alone [15]: significantly reduced the activity of the antibiotic; zone of inhibition at 200 µM [3]: 2 mm; zone of inhibition at 10000 µM [3]: 25 mm; zone of inhibition at 200 µM [4]: 6 mm; zone of inhibition at 200 µM [5]: 4 mm; zone of inhibition at 200 µM [13]: 12 mm; zone of inhibition at 10000 µM [13]: 29 mm; zone of inhibition at 200 µM [11]: 19 mm |
| Nc1nc2c(ncn2COCCO)c(=O)[nH]1 [acyclovir, reference compound] | – | – | 10 µM | – | – | – | – | – | – | – | – | – | complete inhibition of HSV-2 replication (HSV-2; examined concentrations 1.25–2500 μM): could not inhibit the replication of HSV-2 completely |
| C[Se]C(=O)c1cccc(C(=O)[Se]C)n1 [Compound 3] | > 100 µM | – | 10 µM | – | – | – | – | – | – | – | – | > 50% | – |
| C[Se]C(=O)c1ccc(C(=O)[Se]C)cc1 [Compound 5] | > 100 µM | – | – | – | – | – | – | – | – | – | – | 73% | effect on the antibiofilm activity of TET compared to TET alone [15]: significantly reduced the activity of the antibiotic; antiviral activity against HSV-2 (in words) (HSV-2): did not reduce the number of HSV-2 |
| O=C(C[Se]C(=O)c1ccccc1)Oc1ccccc1 [Compound 8] | > 100 µM | – | 12.5 µM | 8 fold | – | – | – | – | – | – | – | – | antibiofilm effect in the presence of TET [15]: significantly higher antibiofilm effects; effect on the antibiofilm activity of TET compared to TET alone [15]: significantly reduced the activity of the antibiotic; inhibition at 50 µM (S. aureus ATCC 25923 [2]): > 70% |
